Measured values taken from patent EP0044212B1, “Herbicidal o-alkylsulfonyloxy- and o-alkylsulfonylamino-benzenesulfonamides” (E.I. DU PONT DE NEMOURS AND COMPANY, priority 1980, dated 1982).

Tests used:
[1] = test system: Broadleaves; experiment: Test C pre-emergence on Fallsington silt loam soil; format: in vivo, velvetleaf, jimsonweed, mustard, pigweed; conditions: 28 days
Source text: (§1) The high herbicidal activity of two of the compounds from within the scope of the invention is evident from the results obtained in this test. The experiment concerned pre-emergence applications on soil. The containers used were 25 cm diameter plastic pots filled with Fallsington silt loam. One set of pots was planted to weeds, the seeds of which were uniformly mixed with the top 1.2 cm layer of soil. The species selected were: johnsongrass (Sorghum halepense), barnyardgrass (Echinochloa crusgalli), crabgrass (Digitaria sanguinalis), giant foxtail (Setaria faberii), velvetleaf (Abutilon theophrasti), jimsonweed (Datura stramonium), mustard (Brassica arvensis), and pigweed (Amaranthus retroflexus). Another set of pots were planted to the following crops with from one to four species per pot: corn (planting depth 3.7 cm), cotton, soybeans, sunflower, Clinton oats, wheat, Black Valentine beans, rice, sorghum, peas, flax, and peanuts (all at 2.5 cm depth), cucumbers, cabbage, alfalfa, safflower, sugarbeets, tomato, spinach, barley, and Kentucky bluegrass (all at 1.2 cm depth). Immediately after planting, the test chemical was applied to the soil surfaces dissolved in a non-phytotoxic solvent. One pot from the weed phase and one of each of the crop species were left untreated for the purpose of comparison. […]

[2] = test system: Cocklebur; experiment: Test F over-the-top soil/foliage treatment; format: in vivo, Xanthium pensylvanicum; conditions: soil/foliage spray, ~14 days
Method: (§2) The test chemicals, dissolved in a non-phytotoxic solvent, were applied in an overall spray to the foliage and surrounding […] of selected plant species. […] Approximately fourteen days after treatment, all species were visually compared to untreated controls and rated for response to treatment.
(§3) All plant species were seeded in Woodstown sandy loam soil and grown in a greenhouse. The following species were grown in soil contained in plastic pots (25 cm diameter by 13 cm deep): soybeans, cotton, alfalfa, corn, rice, wheet, sorghum, velvetleaf (Abutilon theophrasti), sesbania (Sesbania exaltata), Cassia (Cassia tora), morningglory (Ipomoea hederacea), jimsonweed (Datura stramonium), cocklebur (Xanthium pensylvanicum), crabgrass (Digitaria spp.), nutsedge (Cyperus rotundus), barnyardgrass (Echinochloa crusgalli), giant foxtail (Setaria faberii) and wild oats (Avena fatua). The following species were grown in soil in a paper cup (12 cm diameter by 13 cm deep): sunflower, sugarbeets, and mustard. All plants were sprayed approximately 14 days after planting.

[3] = test system: Barnyardgrass; experiment: Test E application to paddy water after transplanting of rice; format: in vivo, Echinochloa spp.
Source text: (§4) Test samples were formulated and applied directly to the paddy water three days after transplanting of rice. The test was maintained in a greenhouse, and plant response ratings were taken at the stated intervals after application.

[4] = test system: Soybean; experiment: Test C pre-emergence on Fallsington silt loam soil; format: in vivo, soybeans; conditions: 0.03 kg/ha, 28 days
Source text: as §1

[5] = test system: Velvetleaf; experiment: Test B pre-emergence on Fallsington silt loam; format: in vivo, Abutilon theophrasti; conditions: 28 days
Source text: (§5) Two plastic bulb pans were filled with fertilized and limed Fallsington silt loam soil. One pan was planted with corn, sorghum, Kentucky bluegrass and several grassy weeds. The other pan was planted with cotton, soybeans, purple nutsedge (Cyperus rotundus), and several broadleaf weeds. The following grassy and broadleaf weeds were planted: crabgrass (Digitaria sanguinalis), barnyardgrass (Echinochloa crusgalli), wild oats (Avena fatua), johnsongrass (Sorghum halepense), dallisgrass (Paspalum dilatatum), giant foxtail (Setaria faberii), cheatgrass (Bromus secalinus), mustard (Brassica arvensis), cocklebur (Xanthium pensylvanicum), pigweed (Amaranthus retroflexus), morningglory (Ipomoea hederacea), cassia (Cassia tora), teaweed (Sida spinosa), velvetleaf (Abutilon theophrasti), and jimsonweed (Datura stramonium). A 12.5 cm diameter plastic pot was also filed with prepared soil and planted with rice and wheat. Another 12.5 cm pot was planted with sugarbeets. The above four containers were treated pre- emergence with several test compounds within the scope of the invention.
(§6) Twenty-eight days after treatment, the plants were evaluated and visually rated for response to the chemical treatments utilizing the rating system described previously for Test A. The data are summarized in Table B.

[6] = test system: Teaweed; experiment: Test B pre-emergence on Fallsington silt loam; format: in vivo, Sida spinosa; conditions: 28 days
Source text: as §5, §6

[7] = test system: Rice; experiment: Test E application to paddy water after transplanting of rice; format: in vivo
Source text: as §4

[8] = test system: Cotton; experiment: Test F over-the-top soil/foliage treatment; format: in vivo; conditions: soil/foliage spray, ~14 days
In short: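 Seed in sandy loam (Woodstown), grow in greenhouse. Spray compound, dissolved in a non-phytotoxic solvent, over plants and soil at ~14 days after planting. Score response visually versus untreated controls after ~14 days.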

[9] = test system: Mustard; experiment: Test B pre-emergence on Fallsington silt loam; format: in vivo, Brassica arvensis; conditions: 28 days
Source text: as §5, §6

[10] = test system: Wheat; experiment: Test B pre-emergence on Fallsington silt loam; format: in vivo; parameters: scale not given here; conditions: 28 days
Source text: as §5, §6

[11] = test system: Sugarbeets; experiment: Test B pre-emergence on Fallsington silt loam; format: in vivo; parameters: scale not given here; conditions: 28 days
Source text: as §5, §6

[12] = test system: Water Chestnut; experiment: Test E application to paddy water after transplanting of rice; format: in vivo, Eleocharis spp.
Source text: as §4

[13] = test system: Crabgrass; experiment: Test F over-the-top soil/foliage treatment; format: in vivo, Digitaria spp.; parameters: scale not given here; conditions: soil/foliage spray, ~14 days
Method: as §2, §3

[14] = test system: Corn; experiment: Test B pre-emergence on Fallsington silt loam; format: in vivo; parameters: scale not given here; conditions: 28 days
Source text: as §5, §6

[15] = test system: Jimsonweed; experiment: Test B pre-emergence on Fallsington silt loam; format: in vivo, Datura stramonium; conditions: 28 days
Source text: as §5, §6

COc1cc(OC)nc(NC(=O)NS(=O)(=O)c2ccccc2OS(C)(=O)=O)n1 [Compound 1, N-[(4,6-Dimethoxypyrimidin-2-yl)aminocarbonyl]-2-hydroxybenzenesulfonamide, methanesulfonate]
2C: Crabgrass response rating ([13]; 0.015 kg/ha)
0: Barnyardgrass* 4 Weeks ([3]; 1 g/ha in paddy water) | Barnyardgrass* 4 Weeks ([3]; 4 g/ha in paddy water) | Barnyardgrass* 4 Weeks ([3]; 8 g/ha in paddy water) | Rice 4 Days ([7]; 1 g/ha in paddy water) | Rice 4 Weeks ([7]; 1 g/ha in paddy water) | Rice 4 Days ([7]; 4 g/ha in paddy water) | Rice 4 Weeks ([7]; 4 g/ha in paddy water) | Rice 4 Days ([7]; 8 g/ha in paddy water) | Rice 4 Weeks ([7]; 8 g/ha in paddy water) | Wheat response rating ([10]; 0.03 kg/ha) | Crabgrass response rating ([13]; 0.003 kg/ha)
5G: Cocklebur response rating ([2]; 0.003 kg/ha) | Crabgrass response rating ([13]; 0.007 kg/ha)
10C: Velvetleaf response rating ([5]; 0.12 kg/ha) | Cotton response rating ([8]; 0.003 kg/ha) | Mustard response rating ([9]; 0.03 kg/ha) | Mustard response rating ([9]; 0.12 kg/ha) | Sugarbeets response rating ([11]; 0.03 kg/ha) | Sugarbeets response rating ([11]; 0.12 kg/ha)
8G: Water Chestnut** 4 Weeks ([12]; 4 g/ha in paddy water)
3G: Broadleaves response rating ([1]; 0.0035 kg/ha) | Wheat response rating ([10]; 0.12 kg/ha)
9G: Water Chestnut** 4 Weeks ([12]; 8 g/ha in paddy water)
7G: Cocklebur response rating ([2]; 0.007 kg/ha) | Water Chestnut** 4 Weeks ([12]; 1 g/ha in paddy water)
4G, 2lH: Soybean response rating [4]
4G: Broadleaves response rating ([1]; 0.0075 kg/ha)
6G: Teaweed response rating ([6]; 0.03 kg/ha)

Cc1cc(C)nc(NC(=O)NS(=O)(=O)c2ccccc2OS(C)(=O)=O)n1 [Compound 3, N-[(4,6-dimethylpyrimidin-2-yl)aminocarbonyl]-2-hydroxybenzenesulfonamide, methanesulfonate]
10C: Teaweed response rating ([6]; 0.12 kg/ha) | Cotton response rating ([8]; 0.007 kg/ha) | Mustard response rating ([9]; 0.03 kg/ha) | Mustard response rating ([9]; 0.12 kg/ha) | Corn response rating ([14]; 0.03 kg/ha) | Corn response rating ([14]; 0.12 kg/ha) | Sugarbeets response rating ([11]; 0.03 kg/ha) | Sugarbeets response rating ([11]; 0.12 kg/ha)
5G: Mustard response rating ([9]; 0.007 kg/ha) | Wheat response rating ([10]; 0.03 kg/ha)
4G: Teaweed response rating ([6]; 0.03 kg/ha) | Sugarbeets response rating ([11]; 0.015 kg/ha)
3G: Cocklebur response rating ([2]; 0.003 kg/ha)
0: Velvetleaf response rating ([5]; 0.007 kg/ha) | Velvetleaf response rating ([5]; 0.015 kg/ha) | Teaweed response rating ([6]; 0.015 kg/ha) | Wheat response rating ([10]; 0.007 kg/ha) | Wheat response rating ([10]; 0.015 kg/ha) | Corn response rating ([14]; 0.007 kg/ha) | Corn response rating ([14]; 0.015 kg/ha) | Jimsonweed response rating ([15]; 0.007 kg/ha) | Jimsonweed response rating ([15]; 0.015 kg/ha) | Crabgrass response rating ([13]; 0.003 kg/ha) | Crabgrass response rating ([13]; 0.015 kg/ha)

CCCS(=O)(=O)Oc1ccccc1S(=O)(=O)NC(=O)Nc1nc(OC)cc(OC)n1 [Compound 36, N-[(4,6-dimethoxypropimidin-2-yl)aminocarbonyl]-2-hydroxybenzenesulfonamide, 1-propanesulfonate]
10C: Water Chestnut** 8 Weeks ([12]; 25 g/ha in paddy water) | Water Chestnut** 8 Weeks ([12]; 100 g/ha in paddy water)
0: Barnyardgrass* 8 Weeks ([3]; 25 g/ha in paddy water) | Barnyardgrass* 8 Weeks ([3]; 100 g/ha in paddy water) | Rice 1 Week ([7]; 25 g/ha in paddy water) | Rice 8 Weeks ([7]; 25 g/ha in paddy water) | Rice 1 Week ([7]; 100 g/ha in paddy water) | Rice 8 Weeks ([7]; 100 g/ha in paddy water) | Wheat response rating ([10]; 0.06 kg/ha) | Wheat response rating ([10]; 0.25 kg/ha)
4G: Corn response rating ([14]; 0.25 kg/ha)
3G: Corn response rating ([14]; 0.06 kg/ha) | Jimsonweed response rating ([15]; 0.06 kg/ha)

CCCS(=O)(=O)Oc1ccccc1S(=O)(=O)NC(=O)Nc1nc(C)nc(OC)n1 [Compound 39, 2-hydroxy-N-[(4-methoxy-6-methyl-1,3,5-triazin-2-yl)aminocarbonyl]benzenesulfonamide, 1-propanesulfonate]
0: Wheat response rating ([10]; 0.06 kg/ha) | Wheat response rating ([10]; 0.25 kg/ha) | Crabgrass response rating ([13]; 0.007 kg/ha) | Crabgrass response rating ([13]; 0.015 kg/ha) | Crabgrass response rating ([13]; 0.03 kg/ha) | Crabgrass response rating ([13]; 0.06 kg/ha) | Crabgrass response rating ([13]; 0.12 kg/ha)
2G: Corn response rating ([14]; 0.06 kg/ha)
4G: Corn response rating ([14]; 0.25 kg/ha)
10C: Sugarbeets response rating ([11]; 0.25 kg/ha)
